Results published in ChEMBL document CHEMBL1201862, “PubChem BioAssay data set” (2004).
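Interpolation was linear, between the two tested concentrations surrounding the appropriate level; five concentrations were tested over 48 hours in 96-well plates. Here, GI50 denotes the concentration required for 50% inhibition of growth.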 Calls of active or inactive are those of the source. Cut-off read from the data, not from the text of the source: active = GI50 up to about 1.1 µM and inactive = higher.

How the values were obtained:
Assay in all cases: NCI anticancer screen, dose series, 48 h
[1] = test system: SF-268
[2] = test system: SNB-75
[3] = test system: HCT-15
[4] = test system: HCC 2998
[5] = test system: SK-MEL-2
[6] = test system: OVCAR-3
[7] = test system: SN12C
[8] = test system: EKVX
[9] = test system: NCI-H460
[10] = test system: UO-31
[11] = test system: SK-MEL-28
[12] = test system: SK-MEL-5
[13] = test system: SF-539
[14] = test system: OVCAR-8
[15] = test system: UACC-62
[16] = test system: NCI-H522

SMILES | GI50 [1] | GI50 [2] | GI50 [3] | GI50 [4] | GI50 [5] | GI50 [6] | GI50 [7] | GI50 [8] | GI50 [9] | GI50 [10] | GI50 [11] | GI50 [12] | GI50 [13] | GI50 [14] | GI50 [15] | GI50 [16]
Cc1ccccc1C(=O)c1ccccc1O | > 100 µM (inactive) | > 79.6 µM (inactive) | > 100 µM | > 100 µM (inactive) | > 100 µM (inactive) | > 100 µM (inactive) | > 100 µM (inactive) | > 100 µM (inactive) | > 100 µM (inactive) | 24.6 µM (inactive) | > 100 µM (inactive) | > 100 µM (inactive) | > 100 µM (inactive) | > 100 µM (inactive) | > 100 µM (inactive) | –
O=C(Nc1cc(Cl)ccc1Cl)c1cc2ccccc2oc1=O | – | 15.7 µM (inactive) | > 100 µM | – | > 100 µM (inactive) | 77.6 µM (inactive) | 75.9 µM (inactive) | > 100 µM (inactive) | 53.2 µM (inactive) | – | > 100 µM (inactive) | > 100 µM (inactive) | > 100 µM (inactive) | 88.3 µM (inactive) | > 100 µM (inactive) | > 100 µM (inactive)
N#CC(NNC(=O)c1ccccc1O)c1ccc(O)cc1 (centres undefined) | 1.79 µM (inactive) | 1.24 µM (inactive) | 8.63 µM | – | 2.67 µM (inactive) | 9.55 µM (inactive) | 18.6 µM (inactive) | – | 3.79 µM (inactive) | 2.3 µM (inactive) | > 100 µM (inactive) | 19.4 µM (inactive) | 3.78 µM (inactive) | 7.66 µM (inactive) | 1.95 µM (inactive) | 12.8 µM (inactive)
O=C(/C=N/O)Nc1cccc(Cl)c1I | 35.9 µM (inactive) | 12.8 µM (inactive) | 79.1 µM | > 100 µM (inactive) | 24.9 µM (inactive) | 30.1 µM (inactive) | 47.8 µM (inactive) | 8.83 µM (inactive) | > 100 µM (inactive) | 23.9 µM (inactive) | > 100 µM (inactive) | 40.8 µM (inactive) | – | 81.5 µM (inactive) | 43.1 µM (inactive) | 26.1 µM (inactive)
Nc1nc(O)c([N+](=O)[O-])c(NCCOCP(=O)(O)O)n1 | > 100 µM (inactive) | > 100 µM (inactive) | – | > 100 µM (inactive) | > 100 µM (inactive) | > 100 µM (inactive) | > 100 µM (inactive) | > 100 µM (inactive) | > 100 µM (inactive) | > 100 µM (inactive) | > 100 µM (inactive) | – | > 100 µM (inactive) | > 100 µM (inactive) | > 100 µM (inactive) | > 100 µM (inactive)
CC(C)C(Sc1nc(-c2ccccc2)c(-c2ccccc2)[nH]1)C(=O)N/N=C/c1ccc(Cl)cc1 (centres undefined) | 20.9 µM (inactive) | 29.3 µM (inactive) | 17.5 µM | – | 17.5 µM (inactive) | 18.2 µM (inactive) | 17.5 µM (inactive) | 22.1 µM (inactive) | 22.7 µM (inactive) | 19.5 µM (inactive) | 21.8 µM (inactive) | 16.7 µM (inactive) | 21.1 µM (inactive) | 19.7 µM (inactive) | 22.8 µM (inactive) | 20.7 µM (inactive)
NC1=NN(c2ccccc2)C(=O)C1C(=O)CCC(=O)Nc1cccc(C(F)(F)F)c1 (centres undefined) | > 100 µM (inactive) | – | 30.8 µM | > 100 µM (inactive) | > 100 µM (inactive) | > 100 µM (inactive) | > 100 µM (inactive) | > 100 µM (inactive) | > 100 µM (inactive) | > 100 µM (inactive) | > 100 µM (inactive) | > 100 µM (inactive) | > 100 µM (inactive) | > 100 µM (inactive) | 53 µM (inactive) | –
O=C1C[C@H]2CC3(CC[C@H]2CN1)OCCO3 | > 100 µM (inactive) | > 100 µM (inactive) | > 100 µM | > 100 µM (inactive) | > 100 µM (inactive) | > 100 µM (inactive) | > 100 µM (inactive) | > 100 µM (inactive) | > 100 µM (inactive) | > 100 µM (inactive) | > 100 µM (inactive) | > 100 µM (inactive) | > 100 µM (inactive) | > 100 µM (inactive) | > 100 µM (inactive) | > 100 µM (inactive)
O=C(c1ccc([N+](=O)[O-])cc1[N+](=O)[O-])N(/N=C/C=C/c1ccccc1)c1nnc(-c2ccccc2)c(-c2ccccc2)n1 | 40.7 µM (inactive) | 28.8 µM (inactive) | 29 µM | 31.6 µM (inactive) | 31 µM (inactive) | 21 µM (inactive) | 63.7 µM (inactive) | 36.4 µM (inactive) | 34 µM (inactive) | 18.5 µM (inactive) | 27.3 µM (inactive) | 30.6 µM (inactive) | 15.2 µM (inactive) | 22.7 µM (inactive) | 20.6 µM (inactive) | 22 µM (inactive)
CCC1(c2c(F)c(F)c(N)c(F)c2F)CCC(=O)NC1=O (centres undefined) | > 100 µM (inactive) | 38.7 µM (inactive) | > 100 µM | > 100 µM (inactive) | > 100 µM (inactive) | > 100 µM (inactive) | – | > 100 µM (inactive) | > 100 µM (inactive) | > 100 µM (inactive) | > 100 µM (inactive) | > 100 µM (inactive) | > 100 µM (inactive) | > 100 µM (inactive) | > 100 µM (inactive) | > 100 µM (inactive)
CO/S(=N/S(=O)(=O)c1ccccc1)c1ccccc1[N+](=O)[O-] (centres undefined) | > 100 µM (inactive) | > 100 µM (inactive) | > 100 µM | > 100 µM (inactive) | > 100 µM (inactive) | > 100 µM (inactive) | > 100 µM (inactive) | > 100 µM (inactive) | > 100 µM (inactive) | > 100 µM (inactive) | > 100 µM (inactive) | > 100 µM (inactive) | > 100 µM (inactive) | > 100 µM (inactive) | > 100 µM (inactive) | > 100 µM (inactive)
O=C(CC(=O)n1nc(-c2ccccc2)c(/N=N/c2ccccc2Cl)c1-c1ccccc1)Nc1ccc(Cl)cc1 | > 100 µM (inactive) | > 100 µM (inactive) | > 43 µM | > 100 µM (inactive) | > 100 µM (inactive) | > 100 µM (inactive) | > 100 µM (inactive) | > 100 µM (inactive) | > 48.1 µM (inactive) | > 100 µM (inactive) | > 100 µM (inactive) | > 100 µM (inactive) | > 100 µM (inactive) | > 100 µM (inactive) | > 100 µM (inactive) | > 100 µM (inactive)
CCP(C)(=O)CC | > 100 µM (inactive) | > 100 µM (inactive) | > 100 µM | > 100 µM (inactive) | > 100 µM (inactive) | > 100 µM (inactive) | > 100 µM (inactive) | > 100 µM (inactive) | > 100 µM (inactive) | > 100 µM (inactive) | > 100 µM (inactive) | > 100 µM (inactive) | > 100 µM (inactive) | > 100 µM (inactive) | > 100 µM (inactive) | –
O=C1C(=O)N(c2ccc(Cl)c(Cl)c2)C(=O)C(=O)C1c1nc2ccccc2o1 | > 100 µM (inactive) | > 100 µM (inactive) | 50.2 µM | > 100 µM (inactive) | > 100 µM (inactive) | > 100 µM (inactive) | 94.6 µM (inactive) | – | > 100 µM (inactive) | > 100 µM (inactive) | > 100 µM (inactive) | – | > 100 µM (inactive) | > 100 µM (inactive) | 74.8 µM (inactive) | 57.4 µM (inactive)
O=C(CCC(=O)Nc1ccc(Cl)c(Cl)c1)CC(=O)c1ccc(Cl)cc1 | > 100 µM (inactive) | – | > 100 µM | > 100 µM (inactive) | > 100 µM (inactive) | > 100 µM (inactive) | > 100 µM (inactive) | > 100 µM (inactive) | > 100 µM (inactive) | > 100 µM (inactive) | – | – | > 100 µM (inactive) | > 100 µM (inactive) | 47.8 µM (inactive) | > 100 µM (inactive)
O=c1[nH]c(=O)n(C2CC(O)C(CO)O2)cc1COCC(F)(F)F (centres undefined) | > 100 µM (inactive) | > 100 µM (inactive) | – | > 100 µM (inactive) | > 100 µM (inactive) | > 100 µM (inactive) | > 100 µM (inactive) | > 100 µM (inactive) | > 100 µM (inactive) | > 100 µM (inactive) | – | > 100 µM (inactive) | > 100 µM (inactive) | > 100 µM (inactive) | > 100 µM (inactive) | > 100 µM (inactive)
c1ccc(SCCCC(Sc2ccccc2)Sc2ccccc2)cc1 | > 100 µM (inactive) | > 100 µM (inactive) | > 100 µM | > 100 µM (inactive) | > 100 µM (inactive) | > 100 µM (inactive) | > 100 µM (inactive) | > 100 µM (inactive) | > 100 µM (inactive) | > 100 µM (inactive) | > 100 µM (inactive) | > 100 µM (inactive) | > 100 µM (inactive) | > 100 µM (inactive) | > 100 µM (inactive) | –
COC(=O)C1=CC(=O)[C@@H]2CCCC[C@H]12 | > 100 µM (inactive) | > 100 µM (inactive) | > 100 µM | > 100 µM (inactive) | > 100 µM (inactive) | > 100 µM (inactive) | > 100 µM (inactive) | – | > 100 µM (inactive) | > 100 µM (inactive) | > 100 µM (inactive) | – | > 100 µM (inactive) | > 100 µM (inactive) | > 100 µM (inactive) | > 100 µM (inactive)
C#CCOCn1cnc2c(N)ncnc21 | > 100 µM (inactive) | > 100 µM (inactive) | – | > 100 µM (inactive) | > 100 µM (inactive) | > 100 µM (inactive) | > 100 µM (inactive) | > 100 µM (inactive) | > 100 µM (inactive) | > 100 µM (inactive) | > 100 µM (inactive) | > 100 µM (inactive) | > 100 µM (inactive) | > 100 µM (inactive) | > 100 µM (inactive) | > 100 µM (inactive)
